According to patent publication EP4818172A1, “ASCORBIC ACID DERIVATIVES AND COSMETIC CONTAINING SAME” (Seiwa Kasei Co., Ltd., priority 2023, dated 2025):

How the values were obtained:
[1] = Stability test -1: residual rate of 1% aqueous solutions at pH 3 to 9 on storage; format: physicochemical; conditions: 1% aqueous solution
[2] = Stability test -1: odor and coloration scored by 10 panelists; format: physicochemical; conditions: Test Example 1, aqueous solution, total score of 10 panelists
Protocol: For each of the samples of Synthesis Examples 1 to 6, 1% aqueous solutions were adjusted to pH 3, 5, 7, 8, and 9 with a dilute potassium hydroxide aqueous solution, and then placed in 50 mL screw tubes and • 2: Color changes compared to immediately after preparation. • 1: Strongly colored compared to immediately after preparation. Based on the results of the above evaluation, the following classification was made: • ○: Total score of 10 panelists is 25 or more • △: Total score of 10 panelists is 16-24 • ×: The total score of 10 panelists is 15 or less [Table 10]

[3] = test system: Normal human dermal fibroblasts; test: Collagen production promoting effect (ELISA of free collagen in supernatant); format: cell-based; conditions: sample at 10 mM or less, cultured 48 hours, % of control group (100%), N=3
Protocol: Normal human dermal fibroblasts were prepared in D-MEM containing 5% (v/v) fetal bovine serum to a cell density of 2.5 × 10^4 cell s /well, and then pre-incubated for 24 hours on a 96-well plate. After removing the medium, samples prepared to a predetermined concentration in D-MEM containing 5% (v/v) fetal bovine serum were added to each well and cultured for 48 hours. After the culture was completed, the amount of free collagen in the supernatant was quantified by ELISA. Measurements were performed in triplicate (N=3).
The amount of collagen produced when the sample was measured at a concentration of 10 mM or less was compared with that of the control group, and the results (% values when the control group was set to 100%) are shown in Table 17 based on the following criteria. • <100%: ± • 100-140%: + • 140%<: ++ [Table 17]

[4] = test system: Normal human dermal fibroblasts (NHDF); test: Hyaluronic acid production promoting effect (ELISA of supernatant); format: cell-based; conditions: sample at 10 mM or less in serum-free D-MEM, cultured 48 hours, % of control group (100%), N=3
Protocol: Normal human dermal fibroblasts (NHDF) were prepared in D-MEM containing 5% (v/v) fetal bovine serum to a cell density of 2.5 × 10^4 cells/well, and then pre-incubated on a 96-well plate for 24 hours. After removing the medium, samples prepared in serum-free D-MEM were added to each well and cultured for 48 hours. After the culture was completed, the amount of hyaluronic acid in the supernatant was quantified by ELISA. Measurements were performed in triplicate (N=3).
The amount of hyaluronic acid produced when the sample was measured at a concentration of 10 mM or less was compared with that of the control group, and the results (% values when the control group is set to 100%) are shown in Tables 18 to 20 based on the following criteria. • <100%: ± • 100-120%: + • 120%<: ++ [Table 18]

SMILES	Residual Rate After 2 weeks ([1]; pH3, stored at 50°C)	Residual Rate After 4 weeks ([1]; pH3, stored at 50°C)	Residual Rate After 2 weeks ([1]; pH5, stored at 50°C)	Residual Rate After 4 weeks ([1]; pH5, stored at 50°C)	Residual Rate After 2 weeks ([1]; pH7, stored at 50°C)	Residual Rate After 4 weeks ([1]; pH7, stored at 50°C)	Residual Rate After 2 weeks ([1]; pH8, stored at 50°C)	Residual Rate After 4 weeks ([1]; pH8, stored at 50°C)	Residual Rate After 2 weeks ([1]; pH9, stored at 50°C)	Residual Rate After 4 weeks ([1]; pH9, stored at 50°C)	Coloration After 2 weeks [2]	Odor After 2 weeks [2]	Coloration After 4 weeks [2]	Odor After 4 weeks [2]	Collagen production-promoting effect [3]	Hyaluronic acid production-promoting effect [4]
O=C1OC(C(O)CO)C2=C1OCCO2 (stereo not shown) [synthesis example 1, 2,3-O-(1,2-ethanediyl) ascorbic acid]	⊚	⊚	⊚	⊚	○	Δ	Δ	×	×	×	○ (Total score of 10 panelists is 25 or more)	○ (Total score of 10 panelists is 25 or more)	Δ	○ (Total score of 10 panelists is 25 or more)	+ (100-140%)	+ (100-120%)
O=C1OC(C(O)CO)C2=C1OCCCO2 (stereo not shown) [synthesis example 2, 2,3-O-(1,3-propanediyl) ascorbic acid]	⊚	⊚	⊚	⊚	⊚	⊚	⊚	○	○	Δ	○ (Total score of 10 panelists is 25 or more)	○ (Total score of 10 panelists is 25 or more)	○ (Total score of 10 panelists is 25 or more)	Δ	++ (140%<)	++ (120%<)
O=C1OC(C(O)CO)C2=C1OCCCCO2 (stereo not shown) [synthesis example 3, 2,3-O-(1,4-butanediyl) ascorbic acid]	⊚	⊚	⊚	⊚	⊚	⊚	⊚	○	○	Δ	○ (Total score of 10 panelists is 25 or more)	○ (Total score of 10 panelists is 25 or more)	○ (Total score of 10 panelists is 25 or more)	○ (Total score of 10 panelists is 25 or more)	+ (100-140%)	+ (100-120%)
O=C1OC(C(O)CO)C2=C1OCC(O)CO2 (stereo not shown) [synthesis example 4, 2,3-O-(2-hydroxypropane-1,3-diyl) ascorbic acid]	⊚	⊚	⊚	⊚	○	○	○	Δ	○	Δ	○ (Total score of 10 panelists is 25 or more)	○ (Total score of 10 panelists is 25 or more)	○ (Total score of 10 panelists is 25 or more)	○ (Total score of 10 panelists is 25 or more)	+ (100-140%)	++ (120%<)
